In ChEMBL document CHEMBL3217547, “3-Substituted coumarins as dual inhibitors of AChE and MAO for the treatment of Alzheimer's disease” (Medchemcomm, 2012):
Calls of active or inactive are those of the source. No cut-off for these calls is given here.

Key:
[1] = biological target: T1, Acetylcholinesterase (Homo sapiens, UniProt P22303); assay: Inhibition of recombinant human AChE expressed in HEK293 cells using acetylthiocholine iodide as substrate at 100 uM preincubated for 5 mins before substrate addition measured after 10 mins by Ellman's method
[2] = biological target: T2, Amine oxidase [flavin-containing] A (Homo sapiens, UniProt P21397); assay: Inhibition of recombinant human MAO-A assessed as production of hydrogen peroxide from p-tyramine up to 100 uM after 15 mins by Amplex Red assay; details: 0.25 h
T2 sequence (P21397 whole entry): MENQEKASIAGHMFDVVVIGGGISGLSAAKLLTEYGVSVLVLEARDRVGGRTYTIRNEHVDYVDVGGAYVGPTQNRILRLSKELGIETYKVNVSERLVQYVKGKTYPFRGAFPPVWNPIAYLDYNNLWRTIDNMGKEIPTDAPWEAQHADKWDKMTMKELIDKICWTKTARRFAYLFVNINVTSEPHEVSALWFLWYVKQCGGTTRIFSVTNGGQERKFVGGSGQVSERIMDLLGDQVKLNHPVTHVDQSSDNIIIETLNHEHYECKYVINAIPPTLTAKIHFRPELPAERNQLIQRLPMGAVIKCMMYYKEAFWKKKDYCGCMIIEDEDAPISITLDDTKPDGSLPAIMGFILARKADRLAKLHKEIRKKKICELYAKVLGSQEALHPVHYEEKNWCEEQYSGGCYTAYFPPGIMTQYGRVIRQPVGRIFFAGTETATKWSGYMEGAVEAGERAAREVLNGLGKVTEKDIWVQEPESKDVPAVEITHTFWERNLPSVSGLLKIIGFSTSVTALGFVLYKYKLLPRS

[3] = biological target: T3, Amine oxidase [flavin-containing] B (Homo sapiens, UniProt P27338)
T3 sequence (P27338 whole entry): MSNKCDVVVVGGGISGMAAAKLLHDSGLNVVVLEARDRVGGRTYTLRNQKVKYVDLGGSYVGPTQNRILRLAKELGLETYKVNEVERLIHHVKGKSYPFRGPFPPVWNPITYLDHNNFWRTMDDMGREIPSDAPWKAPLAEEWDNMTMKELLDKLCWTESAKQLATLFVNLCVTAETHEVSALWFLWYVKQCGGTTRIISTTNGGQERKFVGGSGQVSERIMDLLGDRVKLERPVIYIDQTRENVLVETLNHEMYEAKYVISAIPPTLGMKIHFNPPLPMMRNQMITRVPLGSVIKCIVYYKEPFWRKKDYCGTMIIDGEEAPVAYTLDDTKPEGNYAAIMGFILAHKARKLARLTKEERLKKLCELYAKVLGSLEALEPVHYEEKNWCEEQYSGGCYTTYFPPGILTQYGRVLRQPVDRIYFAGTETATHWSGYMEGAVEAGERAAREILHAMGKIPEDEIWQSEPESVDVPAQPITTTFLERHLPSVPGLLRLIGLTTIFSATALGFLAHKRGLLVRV
Description: Inhibition of recombinant human MAO-B assessed as production of hydrogen peroxide from p-tyramine after 15 mins by Amplex Red assay

[4] = biological target: T1, Acetylcholinesterase; assay: Inhibition of recombinant human AChE expressed in HEK293 cells using acetylthiocholine iodide as substrate preincubated for 5 mins before substrate addition measured after 10 mins by Ellman's method
[5] = biological target: T2, Amine oxidase [flavin-containing] A; assay: Inhibition of recombinant human MAO-A assessed as production of hydrogen peroxide from p-tyramine after 15 mins by Amplex Red assay
[6] = biological target: T3, Amine oxidase [flavin-containing] B; assay: Inhibition of recombinant human MAO-B assessed as production of hydrogen peroxide from p-tyramine up to 100 uM after 15 mins by Amplex Red assay; details: 0.25 h
[7] = biological target: T3, Amine oxidase [flavin-containing] B; assay: Inhibition of recombinant human MAO-B assessed as production of hydrogen peroxide from p-tyramine at 100 uM after 15 mins by Amplex Red assay; details: 0.25 h

T1 sequence (P22303 whole entry): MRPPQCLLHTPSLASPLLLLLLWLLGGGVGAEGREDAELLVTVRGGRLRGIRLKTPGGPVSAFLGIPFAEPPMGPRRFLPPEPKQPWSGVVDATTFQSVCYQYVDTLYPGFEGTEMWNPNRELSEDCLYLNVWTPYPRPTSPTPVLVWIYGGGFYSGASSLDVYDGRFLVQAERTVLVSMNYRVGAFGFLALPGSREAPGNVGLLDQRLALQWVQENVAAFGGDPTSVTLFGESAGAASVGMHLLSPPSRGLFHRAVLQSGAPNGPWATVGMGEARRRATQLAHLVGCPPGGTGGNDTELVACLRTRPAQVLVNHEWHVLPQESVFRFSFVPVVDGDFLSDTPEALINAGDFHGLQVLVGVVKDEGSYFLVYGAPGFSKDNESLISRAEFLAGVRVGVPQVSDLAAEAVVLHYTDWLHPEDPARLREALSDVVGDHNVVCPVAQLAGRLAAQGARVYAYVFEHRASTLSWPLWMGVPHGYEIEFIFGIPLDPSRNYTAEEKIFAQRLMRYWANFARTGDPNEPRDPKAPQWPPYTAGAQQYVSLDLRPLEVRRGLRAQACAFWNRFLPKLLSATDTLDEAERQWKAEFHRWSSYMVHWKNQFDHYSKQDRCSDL

Row | Structure (SMILES) | inhibition [1] | inhibition (INH) [2] | IC50 [3] [µM] | IC50 [4] [µM] | IC50 [5] [µM] | inhibition (INH) [6] | inhibition at 100 µM [7] [%]
1 | Cc1ccc2oc(=O)c(-c3ccccc3)cc2c1 | inactive | Not Active |  |  |  |  | 
2 | COc1ccc(C(=O)Nc2cc3ccccc3oc2=O)cc1OC | inactive | Not Active | 58.4 |  |  |  | 
3 | COc1cc(C(=O)Nc2cc3ccccc3oc2=O)cc(OC)c1OC | inactive | Not Active | 72.6 |  |  |  | 
4 | O=c1oc2ccccc2cc1-c1ccccc1 | inactive | Not Active |  |  |  |  | 
5 | O=C(Nc1cc2ccccc2oc1=O)C1CCCCC1 | inactive | Not Active | 50 |  |  |  | 
6 | Cc1ccc(C(=O)Nc2cc3ccccc3oc2=O)cc1 |  | Not Active | 7.96 | 18.4 |  |  | 
7 | Cc1ccc(C(=O)Nc2cc3cc(C)ccc3oc2=O)cc1 |  |  | 0.17 | 41.4 | 46 |  | 
8 | O=C(Nc1cc2ccccc2oc1=O)c1ccccc1 | inactive | Not Active | 0.76 |  |  |  | 
9 | Cc1ccc(-c2cc3cc(C)ccc3oc2=O)cc1 | inactive | Not Active |  |  |  |  | 
10 | O=C(CBr)Nc1cc2ccccc2oc1=O | inactive | Not Active |  |  |  | Not Active | 
11 | COc1ccc(C(=O)Nc2cc3ccccc3oc2=O)cc1 |  | Not Active | 30.5 | 69.5 |  |  | 
12 | O=C(Nc1cc2ccccc2oc1=O)c1ccc([N+](=O)[O-])cc1 |  | Not Active |  | 12.9 |  | Not Active | 
13 | CC(=O)Nc1cc2ccccc2oc1=O | inactive |  |  |  | 38.9 |  | 40
14 | O=C(Nc1cc2ccccc2oc1=O)c1ccc(Cl)c(Cl)c1 |  | Not Active | 5.95 | 15 |  |  | 
15 | O=C(Nc1cc2ccccc2oc1=O)c1ccc(Cl)cc1 |  | Not Active | 1.95 | 18.7 |  |  | 
16 | O=C(CCl)Nc1cc2ccccc2oc1=O | inactive | Not Active |  |  |  | Not Active | 
